Reference: US20200339537A1, “NOVEL COMPOUND AS INHIBITOR AGAINST BINDING OF PF34 PROTEIN TO NEDD4-1 PROTEIN AND USE THEREOF” (ENHANCEDBIO INC., priority 2017, published 2020)

Experiments:
[1] = tested on: PTEN (lipid phosphatase activity) in human colon cancer cell line SW620; test: cells; format: cell-based; details: Homo sapiens, SW-620, 48 h, compound 5 μM, PTEN immunoprecipitation, diC8-PIP3 substrate, Biomol Green, read-out: PTEN activity (relative fold @5 μM)
[2] = biological target: T1, binding between p34 protein and NEDD4-1 protein (Homo sapiens, UniProt P46934+Q9UHV2); test: Inhibitory activity on binding between p34 and NEDD4-1, FRET (HTRF) assay; details: pH 7.4, compound 10 μM; 1×PBS pH 7.4, 0.1% BSA, 2% DMSO; 384-well
T1 construct: FLAG or 6xHis (known only from the detection antibodies)
T1 sequence (P46934 1-1319): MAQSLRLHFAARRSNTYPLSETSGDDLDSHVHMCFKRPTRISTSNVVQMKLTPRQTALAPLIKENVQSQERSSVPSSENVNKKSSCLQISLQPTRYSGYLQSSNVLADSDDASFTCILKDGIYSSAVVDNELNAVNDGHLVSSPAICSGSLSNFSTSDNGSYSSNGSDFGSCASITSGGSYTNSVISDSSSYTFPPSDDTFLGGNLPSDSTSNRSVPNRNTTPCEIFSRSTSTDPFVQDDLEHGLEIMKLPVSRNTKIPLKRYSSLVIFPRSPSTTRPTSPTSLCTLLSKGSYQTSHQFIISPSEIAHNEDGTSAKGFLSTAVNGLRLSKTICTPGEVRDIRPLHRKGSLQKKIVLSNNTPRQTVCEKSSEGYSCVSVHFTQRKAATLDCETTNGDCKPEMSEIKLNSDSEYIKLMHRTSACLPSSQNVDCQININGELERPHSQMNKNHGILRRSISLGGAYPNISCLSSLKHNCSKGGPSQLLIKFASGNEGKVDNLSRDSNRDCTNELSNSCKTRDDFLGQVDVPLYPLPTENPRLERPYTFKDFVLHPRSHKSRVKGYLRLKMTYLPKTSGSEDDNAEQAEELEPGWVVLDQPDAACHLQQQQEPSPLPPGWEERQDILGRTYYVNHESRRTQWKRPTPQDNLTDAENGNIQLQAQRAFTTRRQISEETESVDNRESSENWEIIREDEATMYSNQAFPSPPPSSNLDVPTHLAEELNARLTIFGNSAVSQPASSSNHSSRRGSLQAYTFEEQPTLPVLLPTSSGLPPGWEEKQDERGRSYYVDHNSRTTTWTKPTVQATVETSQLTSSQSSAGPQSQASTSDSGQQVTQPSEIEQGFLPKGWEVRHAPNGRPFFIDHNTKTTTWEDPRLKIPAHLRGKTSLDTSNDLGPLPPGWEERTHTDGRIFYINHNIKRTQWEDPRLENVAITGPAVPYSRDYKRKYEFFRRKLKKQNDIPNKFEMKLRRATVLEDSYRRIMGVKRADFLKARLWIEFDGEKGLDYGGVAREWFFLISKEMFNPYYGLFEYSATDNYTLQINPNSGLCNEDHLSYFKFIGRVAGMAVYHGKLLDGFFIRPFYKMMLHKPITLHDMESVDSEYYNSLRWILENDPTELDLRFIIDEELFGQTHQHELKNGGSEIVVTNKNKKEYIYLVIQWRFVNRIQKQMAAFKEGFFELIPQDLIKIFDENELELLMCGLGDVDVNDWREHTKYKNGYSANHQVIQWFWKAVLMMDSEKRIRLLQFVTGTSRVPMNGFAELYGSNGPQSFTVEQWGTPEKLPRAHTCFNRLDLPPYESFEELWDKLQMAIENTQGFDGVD
T1 sequence (Q9UHV2 1-236): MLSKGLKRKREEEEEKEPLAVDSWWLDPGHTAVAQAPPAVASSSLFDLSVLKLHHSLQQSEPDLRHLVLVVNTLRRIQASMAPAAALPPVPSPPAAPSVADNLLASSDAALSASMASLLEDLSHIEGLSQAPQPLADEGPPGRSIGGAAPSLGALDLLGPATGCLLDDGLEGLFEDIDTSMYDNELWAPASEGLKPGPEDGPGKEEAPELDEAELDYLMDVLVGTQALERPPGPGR
Protocol: Inhibitory activity of the compound on binding between p34 and NEDD4-1 was evaluated using p34 protein and NEDD4-1 protein based on the HTRF technology developed by Cisbio. In this assay, a fluorescence resonance energy transfer (FRET) signal was measured in the presence of terbium-labeled anti-FLAG antibody and d2-labeled anti-6XHis antibody. Experiments were performed in 384-well plates under a condition of 1×PBS pH 7.4, 0.1% BSA, and 2% DMSO. A background signal was measured in the absence of the p34-NEDD4-1 proteins, and a non-inhibiting signal was measured with addition of only a solvent (2% DMSO). […] Subsequently, inhibitory activity of the compound on p34-NEDD4-1 was calculated in %.

## O=C(NCc1cncs1)N1CCN(Cc2ccc3cc[nH]c3c2)CC1 [Example 87]
[1]
  fold induction at 5 µM: 1.9
[2]
  inhibition at 10 µM: 48.7%

## O=C(NCc1nc2cc(F)c(F)cc2[nH]1)C1CCN(Cc2c[nH]c3ccc(C(F)(F)F)cc23)CC1 [Example 39]
[1]
  fold induction at 5 µM: 1.6
[2]
  inhibition at 10 µM: 37.7%

## O=C(NC(Cc1ccccc1)c1nc2ccccc2[nH]1)C1CCN(Cc2c[nH]c3ccc(C(F)(F)F)cc23)CC1 (stereo not shown) [Example 33]
[1]
  fold induction at 5 µM: 2.5
[2]
  inhibition at 10 µM: 41.2%

## O=C(NCc1nc2cc(Cl)ccc2[nH]1)C1CCN(Cc2c[nH]c3ccc(Cl)cc23)CC1 [Example 4]
[1]
  fold induction at 5 µM: 1.8
[2]
  inhibition at 10 µM: 30.6%

## O=C(NCc1cncs1)N1CCN(Cc2n[nH]c3ccccc23)CC1 [Example 83]
[1]
  fold induction at 5 µM: 1.9
[2]
  inhibition at 10 µM: 41.3%

## O=C(Nc1ncccn1)N1CCN(Cc2ccc3[nH]ccc3c2)CC1 [Example 73]
[1]
  fold induction at 5 µM: 2.1
[2]
  inhibition at 10 µM: 53.5%

## O=C(Nc1ccc(C(F)(F)F)cc1)N1CCN(Cc2ccc3[nH]ccc3c2)CC1 [Example 68]
[1]
  fold induction at 5 µM: 1.8
[2]
  inhibition at 10 µM: 49.6%

## CC(NC(=O)C1CCN(Cc2ccc3[nH]ccc3c2)CC1)c1nc2ccccc2[nH]1 (stereo not shown) [Example 13]
[1]
  fold induction at 5 µM: 3.2
[2]
  inhibition at 10 µM: 38.9%

## O=C(C1CCN(Cc2ccc3[nH]ccc3c2)CC1)N1CCn2cc(C(F)(F)F)nc2C1 [Example 17]
[1]
  fold induction at 5 µM: 2.2
[2]
  inhibition at 10 µM: 48%

## O=C(NCc1nc2ccccc2o1)C1CCN(Cc2c[nH]c3ccc(C(F)(F)F)cc23)CC1 [Example 32]
[1]
  fold induction at 5 µM: 1.8
[2]
  inhibition at 10 µM: 61.1%

## O=C(NCc1nc2ccccc2o1)C1CCN(Cc2ccc3[nH]ccc3c2)CC1 [Example 18]
[1]
  fold induction at 5 µM: 2
[2]
  inhibition at 10 µM: 30%

## Cc1ccc2[nH]c(CNC(=O)N3CCN(Cc4c[nH]c5ccc(Cl)cc45)CC3)nc2c1 [Example 71]
[1]
  fold induction at 5 µM: 1.8
[2]
  inhibition at 10 µM: 33.7%

## O=C(NCc1nc2cc(F)c(F)cc2[nH]1)C1CCN(Cc2ccc3[nH]ccc3c2)CC1 [Example 16]
[1]
  fold induction at 5 µM: 1.5
[2]
  inhibition at 10 µM: 47.2%

## CC(NC(=O)C1CCN(Cc2c[nH]c3ccc(C(F)(F)F)cc23)CC1)c1nc2ccccc2[nH]1 (stereo not shown) [Example 34]
[1]
  fold induction at 5 µM: 1.9
[2]
  inhibition at 10 µM: 59.6%

## O=C(NCc1nccs1)N1CCN(Cc2ccc3cc[nH]c3c2)CC1 [Example 82]
[1]
  fold induction at 5 µM: 1.7
[2]
  inhibition at 10 µM: 47.2%

## Cc1[nH]c2ccc(CN3CCN(C(=O)NCc4cncs4)CC3)cc2c1C [Example 89]
[1]
  fold induction at 5 µM: 2
[2]
  inhibition at 10 µM: 31.5%

## O=C(NCc1nc2ccc(F)cc2[nH]1)C1CCN(Cc2ccc3[nH]ccc3c2)CC1 [Example 14]
[1]
  fold induction at 5 µM: 3.8
[2]
  inhibition at 10 µM: 44.1%

## O=C(NCc1cncs1)N1CCN(Cc2ccc3[nH]ccc3c2)CC1 [Example 84]
[1]
  fold induction at 5 µM: 2.9
[2]
  inhibition at 10 µM: 44.1%

## O=C(Nc1ccccc1)N1CCN(Cc2ccc3[nH]ccc3c2)CC1 [Example 77]
[1]
  fold induction at 5 µM: 1.8
[2]
  inhibition at 10 µM: 35.3%

## O=C(NCc1nc2ccccc2[nH]1)C1CCN(Cc2c[nH]c3ccc(Cl)cc23)CC1 [Example 45]
[1]
  fold induction at 5 µM: 2.8
[2]
  inhibition at 10 µM: 33.8%

## Cc1ccc2[nH]c(C(C)NC(=O)C3CCN(Cc4c[nH]c5ccc(C(F)(F)F)cc45)CC3)nc2c1 (stereo not shown) [Example 29]
[1]
  fold induction at 5 µM: 2.2
[2]
  inhibition at 10 µM: 59.1%

## O=C(NCc1cncs1)N1CCN(Cc2c[nH]c3ccc(F)cc23)CC1 [Example 86]
[1]
  fold induction at 5 µM: 2
[2]
  inhibition at 10 µM: 41.6%

## CCC(NC(=O)C1CCN(Cc2c[nH]c3ccc(C(F)(F)F)cc23)CC1)c1nc2ccccc2[nH]1 (stereo not shown) [Example 35]
[1]
  fold induction at 5 µM: 1.5
[2]
  inhibition at 10 µM: 45.5%
